Reference: the supplement of paper PMC4862054

Columns and labels:
Details in all cases: incubation time: 72 h
[1] = system: HCC1143; test: drug sensitivity score (DSS), CellTiter-Glo (DSS (AUC-based score)); higher = stronger drug effect (viability inhibition or cytotoxicity); extreme values may be limits of the assay
Outline: (§1)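 Each compound occupied 5 concentrations in 10-fold steps over its own 10,000-fold range in 384-well plates, into which breast cancer cell lines were seeded as 20 µl suspension. Following 72 h of incubation, CellTox Green fluorescence (485/520 nm) was measured, and CellTiter-Glo luminescence was measured after 10 min at room temperature. Plates were individually normalised to 0.1 % DMSO and a positive kill control. From the area under the fitted dose-response curve, a drug sensitivity score was calculated.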

[2] = system: Hs578T; test: as above
Outline: as §1

[3] = system: MDA-MB-453; test: as above
Outline: as §1

[4] = system: HCC1937; test: as above
Outline: as §1

[5] = system: CAL-120; test: as above
Outline: as §1

[6] = system: DU-4475; test: as above
Outline: as §1

[7] = system: MDA-MB-436; test: as above
Outline: as §1

[8] = system: MDA-MB-231; test: as above
Outline: as §1

[9] = system: CAL-51; test: as above
Outline: as §1

[10] = system: MFM-223; test: as above
Outline: as §1

[11] = system: HCC1599; test: as above
Outline: as §1

[12] = system: HCC1143; test: drug sensitivity score (DSS), CellTox Green (DSS (AUC-based score)); higher = stronger drug effect (viability inhibition or cytotoxicity); extreme values may be limits of the assay
Outline: as §1

[13] = system: Hs578T; test: as above
Outline: as §1

[14] = system: MDA-MB-453; test: as above
Outline: as §1

[15] = system: HCC1937; test: as above
Outline: as §1

[16] = system: CAL-120; test: as above
Outline: as §1

[17] = system: HDQ-P1; test: as above
Outline: as §1

[18] = system: DU-4475; test: as above
Outline: as §1

[19] = system: MDA-MB-436; test: as above
Outline: as §1

[20] = system: MDA-MB-231; test: as above
Outline: as §1

[21] = system: CAL-148; test: as above
Outline: as §1

[22] = system: CAL-51; test: as above
Outline: as §1

[23] = system: MFM-223; test: as above
Outline: as §1

[24] = system: BT-549; test: as above
Outline: as §1

[25] = system: MCF-10A; test: as above
Outline: as §1

[26] = system: HCC1599; test: as above
Outline: as §1

[27] = system: BT-474; test: as above
Outline: as §1

`Nc1nc(OCc2cc(Br)cs2)c2[nH]cnc2n1` [Lomeguatrib] showed a drug sensitivity score [1] of 0, a drug sensitivity score [2] of 0 and a drug sensitivity score [3] of 0. The drug sensitivity score [4] was 0, the drug sensitivity score [5] was 0 and the drug sensitivity score [6] was 0. The drug sensitivity score [7] was 0, the drug sensitivity score [8] was 0 and the drug sensitivity score [9] was 0. For the same molecule, the drug sensitivity score [10] was 0, the drug sensitivity score [11] was 0 and the drug sensitivity score [12] was 0. For the same molecule, the drug sensitivity score [13] was 0, the drug sensitivity score [14] was 0 and the drug sensitivity score [15] was 1.11. The drug sensitivity score [16] was 0, the drug sensitivity score [17] was 0 and the drug sensitivity score [18] was 0. For the same molecule, the drug sensitivity score [19] was 0, the drug sensitivity score [20] was 0 and the drug sensitivity score [21] was 0. For the same molecule, the drug sensitivity score [22] was 0, the drug sensitivity score [23] was 0 and the drug sensitivity score [24] was 0. The drug sensitivity score [25] was 0, the drug sensitivity score [26] was 0 and the drug sensitivity score [27] was 0.

With `NS(=O)(=O)OC[C@@H]1C[C@@H](n2ccc3c(N[C@H]4CCc5ccccc54)ncnc32)C[C@@H]1O` [Pevonedistat] the drug sensitivity score [1] was 8.48, the drug sensitivity score [2] was 5.18 and the drug sensitivity score [3] was 3.83. It also gave a drug sensitivity score [4] of 2.78, a drug sensitivity score [5] of 7.98 and a drug sensitivity score [6] of 22.5. It also gave a drug sensitivity score [7] of 14.2, a drug sensitivity score [8] of 6.52 and a drug sensitivity score [9] of 22.8. It also gave a drug sensitivity score [10] of 9.97, a drug sensitivity score [11] of 14 and a drug sensitivity score [12] of 0. It also gave a drug sensitivity score [13] of 0.549, a drug sensitivity score [14] of 0 and a drug sensitivity score [15] of 0. It also gave a drug sensitivity score [16] of 0, a drug sensitivity score [17] of 0 and a drug sensitivity score [18] of 4.01. The drug sensitivity score [19] was 6.93, the drug sensitivity score [20] was 0 and the drug sensitivity score [21] was 0. For the same molecule, the drug sensitivity score [22] was 25.3, the drug sensitivity score [23] was 0 and the drug sensitivity score [24] was 0. The drug sensitivity score [25] was 0, the drug sensitivity score [26] was 0.787 and the drug sensitivity score [27] was 0.

`O=C(O)CCCc1ccc(N(CCCl)CCCl)cc1` [Chlorambucil] was tested, and the drug sensitivity score [1] was 0, the drug sensitivity score [2] was 0 and the drug sensitivity score [3] was 0. The drug sensitivity score [4] was 0, the drug sensitivity score [5] was 0 and the drug sensitivity score [6] was 0. For the same molecule, the drug sensitivity score [7] was 0, the drug sensitivity score [8] was 0 and the drug sensitivity score [9] was 0. It also gave a drug sensitivity score [10] of 0, a drug sensitivity score [11] of 0 and a drug sensitivity score [12] of 0. For the same molecule, the drug sensitivity score [13] was 0, the drug sensitivity score [14] was 0 and the drug sensitivity score [15] was 0. For the same molecule, the drug sensitivity score [16] was 0, the drug sensitivity score [17] was 0 and the drug sensitivity score [18] was 0. For the same molecule, the drug sensitivity score [19] was 2.34, the drug sensitivity score [20] was 0 and the drug sensitivity score [21] was 0. For the same molecule, the drug sensitivity score [22] was 0, the drug sensitivity score [23] was 0 and the drug sensitivity score [24] was 0. It also gave a drug sensitivity score [25] of 0, a drug sensitivity score [26] of 0 and a drug sensitivity score [27] of 0.

Work on `CO[C@H]1C[C@@H]2CC[C@@H](C)[C@@](O)(O2)C(=O)C(=O)N2CCCC[C@H]2C(=O)O[C@H]([C@H](C)C[C@@H]2CC[C@@H](OCCO)[C@H](OC)C2)CC(=O)[C@H](C)/C=C(\C)[C@@H](O)[C@@H](OC)C(=O)[C@H](C)C[C@H](C)/C=C/C=C/C=C/1C` [Everolimus] yielded a drug sensitivity score [1] of 8.31, a drug sensitivity score [2] of 9.44 and a drug sensitivity score [3] of 10. It also gave a drug sensitivity score [4] of 8.95, a drug sensitivity score [5] of 8.8 and a drug sensitivity score [6] of 6.44. It also gave a drug sensitivity score [7] of 5.1, a drug sensitivity score [8] of 0 and a drug sensitivity score [9] of 9.8. It also gave a drug sensitivity score [10] of 10.8, a drug sensitivity score [11] of 0 and a drug sensitivity score [12] of 0. It also gave a drug sensitivity score [13] of 0, a drug sensitivity score [14] of 0 and a drug sensitivity score [15] of 0. The drug sensitivity score [16] was 0, the drug sensitivity score [17] was 0 and the drug sensitivity score [18] was 0. It also gave a drug sensitivity score [19] of 0, a drug sensitivity score [20] of 0 and a drug sensitivity score [21] of 0. The drug sensitivity score [22] was 0, the drug sensitivity score [23] was 5.95 and the drug sensitivity score [24] was 8.1. For the same molecule, the drug sensitivity score [25] was 0, the drug sensitivity score [26] was 0 and the drug sensitivity score [27] was 0.
